Test systems include A498 renal; A549 NSCLC; CCRF-CEM leukemia; DU-145 prostate; HS 578T breast; MCF7 breast; NCI-H522 lung; SF-295 CNS; SN12C renal; UACC-62 melanoma.
What all share (test): growth of human tumour cells (NCI), 48 h

The structures appear in SMILES notation.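 96-well plates; 48 h exposure; 5 concentrations. Endpoints by linear interpolation between flanking doses. Not reached: highest tested concentration assigned. GI50 = concentration required for 50% inhibition of growth. TGI: concentration producing complete growth inhibition.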 A value given as a limit tells only on which side of the number the result lay.

On to `CN(C)c1ccc(/C=C(\C#N)c2cc3ccccc3n2C)cc1`, for which the GI50 with A498 renal was 0.0412 µM; with A549 NSCLC it was 0.226 µM; in the experiment with CCRF-CEM leukemia, 0.244 µM; in the experiment with DU-145 prostate, 0.505 µM; with HS 578T breast, 0.361 µM; in the experiment on MCF7 breast, 0.0379 µM. The GI50 in the experiment on NCI-H522 lung was 0.122 µM; in the experiment on SF-295 CNS, 0.0787 µM; in the experiment on SN12C renal it was 0.482 µM; with UACC-62 melanoma, 0.103 µM. Moreover, the TGI with A498 renal is 0.604 µM; with A549 NSCLC, above 100 µM; in the experiment with CCRF-CEM leukemia, above 100 µM; in the experiment on DU-145 prostate, above 100 µM; with HS 578T breast, above 100 µM; in the experiment on MCF7 breast, above 100 µM. In addition, the results for the TGI with NCI-H522 lung, with SN12C renal and in the experiment with UACC-62 melanoma were 1.29 µM, above 100 µM and above 100 µM, respectively.
`Nc1ccccc1/C=N\Nc1ccccc1`: the GI50 in the experiment with A498 renal was above 100 µM; in the experiment with A549 NSCLC, 4.7 µM; with CCRF-CEM leukemia, 0.431 µM; in the experiment with DU-145 prostate it was above 100 µM; with HS 578T breast, above 100 µM; in the experiment on MCF7 breast it was 8.92 µM. The GI50 was above 100 µM with NCI-H522 lung, 1.63 µM in the experiment on SF-295 CNS, above 100 µM with SN12C renal and 0.353 µM in the experiment on UACC-62 melanoma. For the same compound, the TGI with A498 renal, with A549 NSCLC, with CCRF-CEM leukemia, in the experiment on DU-145 prostate, in the experiment with HS 578T breast and in the experiment on MCF7 breast was above 100 µM throughout. For the same compound, the TGI with NCI-H522 lung, in the experiment with SF-295 CNS, in the experiment with SN12C renal and in the experiment on UACC-62 melanoma was above 100 µM in each case.
Turning to `O=C(O)CN(CC(=O)O)Cc1cc2c(cc1O)Oc1cc(O)c(CN(CC(=O)O)CC(=O)O)cc1C21OC(=O)c2ccccc21`, the TGI in the experiment on A498 renal, with A549 NSCLC, in the experiment with CCRF-CEM leukemia, with DU-145 prostate, in the experiment on HS 578T breast and in the experiment with MCF7 breast was above 100 µM in each case. For the same compound, the TGI with NCI-H522 lung, in the experiment on SF-295 CNS, with SN12C renal and with UACC-62 melanoma was above 100 µM throughout.
On to `CC(C)c1ccc2c(N=Nc3ccc(S(N)(=O)=O)cc3)c(O)[nH]c2c1`, for which the GI50 in the experiment on A498 renal is above 21.5 µM; in the experiment with A549 NSCLC, above 14.8 µM; with CCRF-CEM leukemia it was above 25 µM; in the experiment on DU-145 prostate, 12.5 µM; in the experiment with HS 578T breast, 8.07 µM; in the experiment on MCF7 breast it was above 14.7 µM. In addition, the GI50 in the experiment with NCI-H522 lung is 7.08 µM; with SF-295 CNS it was 11.2 µM; with SN12C renal, above 14.8 µM; in the experiment on UACC-62 melanoma it was above 25 µM. In addition, the TGI in the experiment with A498 renal, in the experiment on A549 NSCLC, in the experiment with CCRF-CEM leukemia, in the experiment with DU-145 prostate, in the experiment on HS 578T breast and with MCF7 breast was above 25 µM each time. Further, the TGI in the experiment on NCI-H522 lung was above 17.8 µM; with SF-295 CNS, above 25 µM; in the experiment on SN12C renal, above 25 µM; in the experiment with UACC-62 melanoma, above 25 µM.
As for `CSC(=S)N/N=C/c1ccccc1`, the TGI in the experiment on A498 renal, in the experiment on A549 NSCLC, with CCRF-CEM leukemia, in the experiment with DU-145 prostate, in the experiment on HS 578T breast and in the experiment on MCF7 breast was above 100 µM throughout. Further, the TGI in the experiment with NCI-H522 lung, with SF-295 CNS, with SN12C renal and with UACC-62 melanoma was above 100 µM in each case.
Take `O=C(CCCCCCC(=O)N/N=C/c1ccc(N(c2ccccc2)c2ccccc2)cc1)NO`: the GI50 with A498 renal is 0.357 µM; in the experiment with A549 NSCLC it was 2.99 µM; in the experiment on CCRF-CEM leukemia it was 2.64 µM; with DU-145 prostate it was 2.43 µM; in the experiment on HS 578T breast it was 6.14 µM; with MCF7 breast, 0.601 µM. In addition, the GI50 was 1.92 µM in the experiment with NCI-H522 lung, 1.77 µM in the experiment with SF-295 CNS, 2.94 µM with SN12C renal and 0.445 µM with UACC-62 melanoma. The TGI in the experiment with A498 renal worked out at 1.62 µM; in the experiment with A549 NSCLC, 9.51 µM; in the experiment with CCRF-CEM leukemia, 16.4 µM; in the experiment with DU-145 prostate, 8.13 µM; with HS 578T breast, 31.2 µM; in the experiment with MCF7 breast, 11.3 µM. The TGI in the experiment on NCI-H522 lung came out at 6.92 µM; with SF-295 CNS, 4.47 µM; with SN12C renal, 13.5 µM; with UACC-62 melanoma it was 1.98 µM.
With `COc1ccc(S(=O)(=O)N2CCN(C(=O)OCc3ccccc3)CC2C(=O)NO)cc1` (centres undefined), the GI50 in the experiment on A498 renal was 24.6 µM; with A549 NSCLC it was above 25 µM; in the experiment with CCRF-CEM leukemia, 6.2 µM; in the experiment with DU-145 prostate, 18.7 µM; in the experiment on HS 578T breast, above 25 µM; in the experiment with MCF7 breast it was 13 µM. For the same compound, the GI50 with NCI-H522 lung was 5.16 µM; with SF-295 CNS, above 25 µM; with SN12C renal it was above 25 µM; with UACC-62 melanoma, above 25 µM. Further, the TGI in the experiment with A498 renal, in the experiment on A549 NSCLC, in the experiment on CCRF-CEM leukemia, with DU-145 prostate, with HS 578T breast and with MCF7 breast was above 25 µM in each case. Moreover, the TGI with NCI-H522 lung, in the experiment with SF-295 CNS, in the experiment on SN12C renal and in the experiment with UACC-62 melanoma was above 25 µM throughout.
Consider `O=C(/C=C/C=C/c1ccccc1)c1ccc(Nc2nc(Nc3ccccc3)nc(Nc3ccccc3)n2)cc1`, for which the GI50 with A498 renal is 19.8 µM; in the experiment on A549 NSCLC, 89.1 µM; in the experiment on CCRF-CEM leukemia, 19.4 µM; in the experiment on DU-145 prostate, 43.6 µM; in the experiment with HS 578T breast, 29 µM; in the experiment on MCF7 breast it was 17.7 µM. Further, the GI50 with NCI-H522 lung was above 100 µM; in the experiment on SF-295 CNS it was 32.5 µM; in the experiment on SN12C renal it was above 100 µM; in the experiment on UACC-62 melanoma, above 100 µM. Moreover, the TGI with A498 renal, with A549 NSCLC, in the experiment with CCRF-CEM leukemia, with DU-145 prostate, with HS 578T breast and in the experiment on MCF7 breast was above 100 µM throughout. The TGI with NCI-H522 lung, in the experiment with SF-295 CNS, with SN12C renal and in the experiment on UACC-62 melanoma was above 100 µM each time.

Source of the values: PubChem BioAssay (NCI).
